Where two headings read alike, the source gives them in different places. Each block holds one compound with its values, some of them ahead of it.
Legend:
[1] = undergoes hydrolytic degradation; cited from earlier work
[2] = Stability of guadecitabine sodium form A in methanol water (9/1 v/v) at 40° C. (HPLC contents); format: physicochemical
Description: Analytical HPLC Method Used for Measuring Guadecitabine Purity Column: 150×3.0 mm Luna Omega Polar C18, 1.6 μm at 40° C. Solvent A: 0.15 mL/l formic acid in water, pH adjusted with ammonia to 3.6. Solvent B: acetonitrile Gradient program: [table] [table] Example 23: Comparison of Guadecitabine Sodium Form A Stability in Water at 25° C. and Methanol Water (9/1 v/v) at 40° C.

[3] = format: physicochemical
Description: Analytical HPLC Method Used for Measuring Guadecitabine Purity
Column: 150×3.0 mm Luna Omega Polar C18, 1.6 μm at 40° C.
Solvent A: 0.15 mL/l formic acid in water, pH adjusted with ammonia to 3.6. Solvent B: acetonitrile Gradient program: […]
Example 23: Comparison of Guadecitabine Sodium Form A Stability in Water at 25° C. and Methanol Water (9/1 v/v) at 40° C.
In water stability of guadecitabine sodium form A was measured as follows.
Instrument method: autosampler temp. was set to 25° C. 10 mg of guadecitabine sodium form A was weighted in 2-mL vial in glovebox and 1 mL of water was added to have concentration exactly 10 mg/mL. Sample was injected freshly after preparation (0 min), 20 min after preparation (20 min) and afterwards every 40 min (duration of single analysis run).

[4] = Stability in aqueous media (statements in the description); format: physicochemical; conditions: aqueous phase of chromatography on C18 column

Structure (SMILES): Nc1ncn([C@H]2C[C@H](O)[C@@H](CO)O2)c(=O)n1 [Decitabine]
stability in aqueous media [1]: unstable

HPLC contents (%) Degradant 2a [2]: <0.05%
HPLC contents (%) Degradant 2b [2]: <0.05%
HPLC contents (%) Degradant 2c [2]: 0.14%
HPLC contents (%) Degradant 2d [2]: 0.10%
HPLC contents (%) guadecitabine sodium ([2]; Suspension in methanol/water (9/1), 40° C., injection time point 240 min): 99.76%
HPLC contents (%) Degradant 2a [3]: <0.05%
HPLC contents (%) Degradant 2b [3]: <0.05%
HPLC contents (%) Degradant 2c [3]: 0.14%
HPLC contents (%) Degradant 2d [3]: 0.05%
HPLC contents (%) guadecitabine sodium ([3]; Solution in DMSO, no time point (reference)): 99.82%
HPLC contents (%) guadecitabine sodium ([3]; Solution in water, 10 mg/mL, 25° C., injection time point 0 min): 99.80%
HPLC contents (%) guadecitabine sodium ([3]; Solution in water, 10 mg/mL, 25° C., injection time point 20 min): 99.63%
HPLC contents (%) guadecitabine sodium ([3]; Solution in water, 10 mg/mL, 25° C., injection time point 40 min): 99.39%
HPLC contents (%) guadecitabine sodium ([3]; Solution in water, 10 mg/mL, 25° C., injection time point 80 min): 99.02%
HPLC contents (%) guadecitabine sodium ([3]; Solution in water, 10 mg/mL, 25° C., injection time point 120 min): 98.58%
HPLC contents (%) guadecitabine sodium ([3]; Solution in water, 10 mg/mL, 25° C., injection time point 160 min): 98.16%
HPLC contents (%) guadecitabine sodium ([3]; Solution in water, 10 mg/mL, 25° C., injection time point 200 min): 97.56%
HPLC contents (%) guadecitabine sodium ([3]; Solution in water, 10 mg/mL, 25° C., injection time point 240 min): 97.11%
HPLC contents (%) guadecitabine sodium ([3]; Solution in water, 10 mg/mL, 25° C., injection time point 280 min): 96.29%
Structure (SMILES): Nc1ncn([C@H]2C[C@H](OP(=O)([O-])OC[C@H]3O[C@@H](n4cnc5c(=O)[nH]c(N)nc54)C[C@@H]3O)[C@@H](CO)O2)c(=O)n1.[Na+] [guadecitabine sodium]

guadecitabine degradation ([2]; in methanol): significantly suppressed
stability in aqueous phase [4]: not stable
Structure (SMILES): Nc1ncn([C@H]2C[C@H](OP(=O)(O)OC[C@H]3O[C@@H](n4cnc5c(=O)[nH]c(N)nc54)C[C@@H]3O)[C@@H](CO)O2)c(=O)n1 [guadecitabine, [(2R,3S,5R)-5-(2-amino-6-oxo-3H-purin-9-yl)-3-hydroxyoxolan-2-yl]methyl [(2R,3S,5R)-5-(4-amino-2-oxo-1,3,5-triazin-1-yl)-2-(hydroxymethyl)oxolan-3-yl] hydrogen phosphate]

From patent US20210147466A1, “IMPROVED PROCESSES FOR THE PREPARATION OF GUADECITABINE AND INTERMEDIATES THEREOF” (TEVA CZECH INDUSTRIES s.r.o., priority 2017, published 2021)
